Experiments:
[1] = test system: peanut-sensitized mice
[2] = test system: albumin in the PL fluid; test: Vascular leakage: albumin content in PL fluid after peanut challenge; assay type: in vivo, C57BL/6 mice; details: PAF-R antagonist; following peanut challenge
Description: During the course of a systemic anaphylactic reaction vasodilatation and hypotension are often associated with excessive vascular permeability and fluid extravasations.

[3] = test system: peanut-sensitized mice; test: Mathematical model grading severity of the anaphylactic response (AU39° C., AU35° C., events under 35° C.); assay type: in vivo, C57BL/6 mice
Experimental: In an effort to more comprehensively grade the anaphylactic response, three measures of severitywere utilized: global, moderate and life-threatening severity. To facilitate the assessment of severity, a mathematical model that describes the overall behavior of the anaphylactic response for each experimental group was developed. Using mean experimental data for untreated mice, an equation was derived that represents the pattern in core temperature up to 120 minutes following challenge. The same equation was then fit to the other experimental group (mice treated with PAF-R antagonist) to derive a numerical coefficient that accurately depicts the respective response. (FIG. 3 E). These equations were subsequently used to generate modeled data. Actual and modeled data were validated through linear regression, yielding R^2 values of greater than 0.99 for both untreated and treated groups (FIG. 3 F). Thus, the response for each experimental group can be expressed with a mathematical representation that can be used to assess the overall degree of the anaphylactic response. Global severity was defined as the area of the response under 39° C. (AU39° C.), while life-threatening severity was depicted as the area of the response under 35° C. (AU35° C.; FIG. 3 F). Moderate severity was deemed as the difference between global and life-threatening severity (AU39° C.-AU35° C.; FIG. 3 F). Given that these areas (i.e. AU39° C. and AU35° C.) were calculated using mean temperatures at each time point, they describe the overall trend of the response. […] In other words, the AU35° C. is not representative of those mice that experienced life-threatening anaphylaxis exclusively but rather encompasses the response of the entire population. Therefore, the concept of life-threatening severity was modified to consider only the number of mice whose temperature fell below 35° C. at any time point (expressed as ‘events under 35° C.’). In addition, the duration of life-threatening conditions was determined by calculating the time at which each response was below 35° C. (FIG. 3 F).
The potential adjuvant effect of antihistamines in the treatment of PIA was assessed. Peanut-sensitized mice were treated with a PAF-R antagonist along with H1 and H2 receptor antagonists and monitored them for 120 min following challenge. FIG. 4 illustrates that concomitant treatment with PAF-R antagonist and anti-histamines prevents life-threatening and prolonged peanut-induced anaphylactic reactions. […] One week after the last sensitization, separate groups of mice were treated as follows: (A) appropriate drug vehicle (B) PAF-R antagonist [50 mg/Kg], ABT-491] orally 1 h prior to CPE challenge. (C) histamine receptor antagonists mepyramine [3 mg/kg] and cimetadine [10 mg/Kg] (for H1 receptor and H2 receptor, respectively) i.v. 30 min prior to CPE challenge (D) The last group of mice was administered the treatments described in B and C concurrently. Pooled data from two independent experiments are shown (n=6/experiment). *, P<0.05 relative to time 0. ns, not significant. […] (E) The accuracy of the model was quantified using linear regression. Using the equation from the model, global severity was defined as the area between the response and 39 (area under 39° C. (AU39° C.)) while life-threatening severity was defined as the area of the response under 35° C. (AU35° C.). Since these areas were calculated using mean temperatures at each time point, they describe the overall trend of the response. […]

[4] = test system: cysteinyl leukotrienes (CysLTC); test: Plasma cysteinyl leukotrienes after peanut challenge (enzyme immunoassay); assay type: in vivo, C57BL/6 mice
Experimental: Blood from control and sensitized mice was collected in K2-EDTA containing tubes at the indicated time points following i.p challenge with CPE and plasma was analyzed for (E) histamine and (F) CysLTC levels. Histamine and leukotriene levels were determined in plasma at different time points following challenge using enzyme immunoassay kits (Beckman Coulter Canada, Inc, Mississauga, and Cedarlane Laboratories Ltd, Hornby, Canada, respectively) according to the manufacture's specifications. Plasma was obtained using K2-EDTA containing tubes (BD Biosciences, Mississauga, ON, Canada). Graphs show mean values±SEM from three to five independent experiments; n=8-12 mice per group. * P<0.05 relative to control. The kinetics of mediator production is distinct. […] These findings indicate that oral sensitization with peanut results in a significant increase in the number of peritoneal mast cells and FcεRI surface expression likely contributing to the massive release of vasoactive mediators following challenge with peanut.
(for H1 receptor and H2 receptor, respectively) i.v. 30 minutes prior to CPE challenge. […] Histamine (C) and (G) and leukotriene (D) and (H) levels from each of the experimental groups above were analyzed in plasma 40 min following CPE challenge. […]

C#Cc1cccc2c1c(C(=O)c1ccc(Cn3c(C)nc4cnccc43)c(F)c1)cn2C(=O)N(C)C [ABT-491]
development of seizures (convulsions) ([1]; ABT-491 50 mg/Kg orally 1 h prior to challenge, 15% of untreated mice developed convulsions): no seizures were observed
recovery from the anaphylactic reaction ([1]; ABT-491 50 mg/Kg orally 1 h prior to challenge, monitored 120 min, FIGS. 3 C and D): significantly accelerated
treated mice that developed either no or mild anaphylactic reactions ([1]; ABT-491 50 mg/Kg orally 1 h prior to challenge, no: score 0, 37.5-40° C., mild: score ≦2, 34.5-37.5° C.): ~50%
mice that reached recovery temperature (37° C.) within 120 min following challenge ([1]; ABT-491 50 mg/Kg orally 1 h prior to challenge, untreated 43%, FIG. 3 C): 83%
mice that dropped their core temperature by more than 4° C. ([1]; ABT-491 50 mg/Kg orally 1 h prior to challenge, untreated 87%): 48%
mice that died within 48 h following challenge ([1]; ABT-491 50 mg/Kg orally 1 h prior to challenge, untreated approximately 20%): none
mice that experienced severe hypothermia 120 min following challenge ([1]; ABT-491 50 mg/Kg orally 1 h prior to challenge, untreated approximately 30%): 9%
decrease in the content of albumin in the PL fluid of treated mice compared to untreated mice (vascular leakage) [2]: 57%
decrease in global severity (AU39° C.) ([3]; PAF-R antagonist 50 mg/Kg orally vs. untreated, up to 120 min following challenge, FIG. 3 F): approximately 50%
less time under life-threatening conditions (below 35° C.) compared to untreated mice ([3]; PAF-R antagonist 50 mg/Kg orally, FIG. 3 F): approximately 75%
number of 'events under 35° C.' ([3]; PAF-R antagonist 50 mg/Kg orally, untreated 133, FIG. 3 F): 41
number of 'events under 35° C.' ([3]; treatments as, 120 min, untreated 75, FIG. 4 E): 16
effect on moderate severity (AU39° C.-AU35° C.) ([3]; treatments as, up to 120 min, FIG. 4 E): partial effect
levels of Cysts in plasma following challenge with peanut ([4]; PAF-R antagonist treated, untreated 570.2±237.3, mean±SEM): 187.3 ± 96.9 pg/mL

CC(c1cc2ccccc2s1)N(O)C(N)=O (stereo not shown) [Zileuton]
impact on the extent and/or kinetics of peanut-induced anaphylactic reactions ([1]; Zileuton 50 mg/Kg oral gavage twice, 12 h and 1 h prior to i.p. CPE challenge, 40 min, FIGS. 2 A and B): did not have an impact
leukotrienes in plasma from treated mice ([4]; Zileuton 50 mg/Kg oral, 12 h and 1 h prior to challenge, plasma 40 min following CPE challenge, FIG. 2 D): nearly undetected

Source: US20110217290A1, “TREATMENT AND/OR PREVENTION OF PEANUT INDUCED ANAPHYLAXIS” (priority 2009, published 2011)
